Measurements: US4174402A, “Method for the prophylaxis of SRS-A-induced symptoms” (priority 1978, dated 1979)
Values joined by “and” are separate entries in the source; they are usually repeats but may differ in a detail not shown here. Equal entries are not always repeated.

Key:
SRS-A [1] = experiment: Test Procedure 4: competitive antagonism to SRS-A in anesthetized guinea pigs; assay type: in vivo, guinea pig
Description: The intratracheal pressure (ITP) of anesthetized, artificially respired guinea pigs (Konzett-Rossler preparation) was monitored and peak increases in ITP recorded. The basic methodology was the same as that described hereinabove for Test Procedure 2 except that the basic experimental unit was not two guinea pigs (medicated and control) but three guinea pigs examined in an uninterrupted sequence: a control guinea pig receiving the standard dose of SRS-A, a medicated guinea pig receiving the standard dose of SRS-A and a medicated guinea pig receiving a multiple dose of SRS-A. In this manner, the ratios of peak responses of the same sample of SRS-A could be determined for medicated/control guinea pigs (standard procedure), and for medicated guinea pigs receiving the standard dose of SRS-A. The multiple dose of SRS-A in these studies was either 3× or 6× the standard dose.

SRS-A [2] = experiment: Test Procedure 3: SRS-A-induced increase in resistance to pulmonary inflation in anesthetized cats; assay type: in vivo, cat
Protocol: The trachea of each cat was cannulated, and the cats were artificially respired at 15 strokes/minute with a stroke volume of 22 ml/kg. A side-arm of the intratracheal cannula was connected to a Statham transducer, and the intratracheal pressure was recorded continuously on a polygraph. One femoral vein was cannulated in all cats receiving intravenous administration of drugs. In addition, most of the cats were cannulated through the femoral artery; this cannula was attached to another Statham transducer, and the blood pressure of these cats recorded. All cats received 1.0 mg/kg of propranolol and 0.2 mg/kg of thenyldiamine intravenously 3 minutes before iv injection of SRS-A. SRS-A was obtained from rat peritoneal cavities as described previously in Test Procedure 1. Each pool of rat ip fluid containing SRS-A was dose-ranged and a dose selected that was estimated to cause an average increase in intrapulmonary resistance to inflation in control cats by 4-6 mmHg. Test dose volumes ranged from 1.0 to 2.0 ml/kg, iv. […] Both test compounds and the sodium hydroxide vehicle were injected iv 5 minutes before the injections of SRS-A (2 minutes before the injection of propranolol and thenyldiamine).

SRS-A [3] = experiment: Test Procedure 2: inhibition of SRS-A-induced bronchoconstriction in anesthetized guinea pigs (Konzett-Rossler); assay type: in vivo, guinea pig; settings: for % Inhibition (duration of anti-SRS-A effect) / Ratio of Peak Response to SRS-A in Paired Med./Co. Guinea Pigs ± S.E.: 10 mg/kg p.o.
Description: SRS-A was harvested as described in Test Procedure 1 described hereinabove. A slightly modified Konzett-Rossler preparation [Arch. […] Guinea pigs weighing 350 to 450 g were anesthetized ip with 1.5 g/kg urethane. The jugular vein and trachea were cannulated and the guinea pigs were artificially respired at a rate of 40 strokes/minute. […] A side arm of the inflationary air cannula was connected to a pressure transducer and resistance to pulmonary inflation continuously recorded. […] Studies with SRS-A commenced after each guinea pig had attained maximum bronchoconstrictor response to histamine. […] The effects of the test compounds were studied by measuring SRS-A-induced bronchoconstriction side-by-side in two guinea pigs, one medicated and one control. Subsequent medicated/control pairs were alternated on two respiratory pumps. In this manner, the gradual decomposition of SRS-A and differences between the two pump/recorder systems, if any, were controlled. The dose (volume) of each sample of SRS-A was adjusted in each pair to keep the peaks of increases in bronchial resistance in control guinea pigs within 13 to 40 mmHg. Bronchoconstriction following injection of SRS-A was measured two ways; as the peak increase in resistance to inflation and, in view of the occasional irregular bronchoconstriction response curves following injection of SRS-A, as the sum of increases in bronchoconstriction over 10 minutes (pressure/time units). Pressure/time units were calculated by measuring the area under the curve of inflationary resistance where ordinates were set at 10 mm of pen excursion/10 mm pressure Hg and the abscissas were set at 15 mm of paper travel/minute. […] SRS-A-induced bronchoconstriction (increase in resistance) was calculated as the area under the curve and over the normal base line of resistance to inflation. […] The effects of the test compounds upon SRS-A-induced bronchoconstriction were expressed as ratios of the peaks and as ratios of the pressure/time units between the paired medicated and control guinea pigs. The consistency of paired responses to SRS-A in nonmedicated guinea pigs was determined in the same manner, by alternating the ratios of the results of guinea pigs on pumps one and two. […] SRS-A was injected 5 minutes after these latter injections. Compound b was prepared as a solution in 2% N-methylglucamine and used within 3 hours. […] Control guinea pigs received injections of the respective solvent vehicles. In order to compare the activities of compound b following iv and po routes of administration, compound b was also administered orally. […] Control guinea pigs received 2% N-methylglucamine. Fifteen minutes later, the guinea pigs were anesthetized, cannulated, and prepared for injections of SRS-A as described. The procedure was timed so that SRS-A was injected 1 hour after the oral administration of compound b. In a separate experiment, using the same methodology, the duration anti-SRS-A activity of compound b was determined after oral administration. Compound b was finely ground in a tissue homogenizer and prepared as a suspension in 0.5% gum tragacanth. A dose of 10 mg/kg was administered and anti-SRS-A effect studied at 1, 4 and 7 hr postmedication. The ratios of peak increases in intratracheal pressure between paired medicated and control guinea pigs was used to calculate percent inhibition.

bradykinin = experiment: animal or person; settings: Cavia porcellus, iv, read-out: lowest dose that resulted in significant inhibition
Protocol: Antagonism of bradykinin-induced bronchoconstriction in guinea pigs was determined by measuring increases in resistance to artificial pulmonary inflation (Konzett-Rossler preparation). […] Due to large variations in bronchoconstricting responses among individual guinea pigs, each guinea pig serves as its own control and was challenged with bradykinin twice. The second response to bradykinin was expressed as percent of the first response to bradykinin. […] All guinea pigs having a first bradykinin response of less than 12 mm Hg were rejected as poor responders. […] In order to augment the bronchoconstrictor response, each guinea pig received 100 mcg propranolol/kg, iv, 5 minutes before the first injection of bradykinin (30 mcg/kg, iv). […] Five minutes after the injection of a test compound the guinea pigs received the second injection of bradykinin and the peak of the response determined. The effects of both test compounds were expressed as % inhibition of bradykinin-induced increase in bronchial resistance to forced inflation, as compared to the levels of bronchial resistance following iv administration of their respective solvent controls.

[4] = suspension, 1 hr before test, P 0.01
[5] = suspension, 4 hr before test, P 0.01
[6] = p.o. 3.3 mg/kg, solution, 1 hour
[7] = p.o. 10 mg/kg, solution, 1 hour

For `COc1ccc2c(c1)c1c(n2C(=O)c2ccccc2)CCC(C(=O)O)C1` (stereo not shown) [Compound b, 9-benzoyl-6-methoxy-1,2,3,4-tetrahydrocarbazole-3-carboxylic acid], the “Ratio of peak responses, medicated (high dose SRS-A)/controls” value (SRS-A [1]; 2.0 mg/kg iv, SRS-A lot B, 6x dose 12 ml/kg) was 2.14 ± .68 and 2.14, the “Ratio of peak responses, medicated (low dose SRS-A)/controls” value (SRS-A [1]; 2.0 mg/kg iv, SRS-A lot B, standard dose 2 ml/kg) was 0.14 ± 0.7 and 0.14 and the “% Inhibition” value (SRS-A [1]; 2.0 mg/kg iv, six-fold SRS-A dose) was 0%. The “% Inhibition” value (SRS-A [1]; 2.0 mg/kg iv, standard dose of SRS-A) was 86%, the “Ratio of peak responses, medicated (high dose SRS-A)/controls” value (SRS-A [1]; 3.3 mg/kg iv, SRS-A lot A, 3x dose 12 ml/kg) was 0.76 ± .20 and 0.76 and the “Ratio of peak responses, medicated (low dose SRS-A)/controls” value (SRS-A [1]; 3.3 mg/kg iv, SRS-A lot A, standard dose 4 ml/kg) was 0.12 ± 0.3 and 0.12. For the same compound, the “% Inhibition” value (SRS-A [1]; 3.3 mg/kg iv, standard dose of SRS-A) was 88%, the “% Inhibition” value (SRS-A [1]; 3.3 mg/kg iv, three-fold SRS-A dose) was 24% and the “mode of antagonism to SRS-A” value (SRS-A [1]; iv) was “competitive antagonist to SRS-A”. For the same compound, the ED50 (SRS-A [2]; Felis catus, 5 min, intravenous) was 0.028 ± 0.024 mg/kg, the “Max. Increase in Resistance to Pulm. Inflation, mm Hg ± S.E.” value (SRS-A [2]; intravenous 0.01 mg/kg) was 4.1 ± 1.3 mm Hg and the “% Inhibition” value (SRS-A [2]; intravenous 0.1 mg/kg) was 73%. The “Max. Increase in Resistance to Pulm. Inflation, mm Hg ± S.E.” value (SRS-A [2]; intravenous 1.0 mg/kg) was 0.1 ± 0.1 mm Hg, the “inhibition of SRS-A-induced increase in resistance to inflation” value (SRS-A [2]; intravenous 1.0 mg/kg) was “complete inhibition” and the “% Inhibition (duration of anti-SRS-A effect)” value (SRS-A [3]; [4]) was 81%. The “Ratio of Peak Response to SRS-A in Paired Med./Co. Guinea Pigs ± S.E.” value (“Ratio … in Paired Med./Co. Guinea Pigs ± S.E.” below) (SRS-A [3]; [4]) was 0.19 ± 0.05, the “% Inhibition (duration of anti-SRS-A effect)” value (SRS-A [3]; [5]) was 68% and the “Ratio … in Paired Med./Co. Guinea Pigs ± S.E.” value (SRS-A [3]; [5]) was 0.32 ± 0.08. The “% Inhibition (duration of anti-SRS-A effect)” value (SRS-A [3]; suspension, 7 hr before test) was 0%, the “Ratio … in Paired Med./Co. Guinea Pigs ± S.E.” value (SRS-A [3]; suspension, 7 hr before test) was 1.00 ± 0.15 and the minimal effective dose (SRS-A [3]; Cavia porcellus, intravenous, read-out: minimal active dose) was 1 mg/kg. The “effect against SRS-A-induced bronchoconstriction (activity profile)” value (SRS-A [3]; guinea pigs) was “effectiveness”, the “% Inhibition (sum of increase in resistance over 10 min)” value (SRS-A [3]; i.v. 0.3 mg/kg) was 0% and the “Sum of Increase in Resist. to Infl. over 10 min, Avg Ratio Med/Co. Pairs ± S.E.” value (“Sum of Increase … Avg Ratio Med/Co. Pairs ± S.E.” for short) (SRS-A [3]; i.v. 0.3 mg/kg) was 1.18 ± .33. The “% Inhibition (peak increase in resistance)” value (SRS-A [3]; i.v. 0.33 mg/kg) was 0%, the “Peak Increase in Resistance to Inflation, Avg Ratio of Med/Co. Pairs ± S.E.” value (SRS-A [3]; i.v. 0.33 mg/kg) was 1.10 ± .19 and the “% Inhibition (peak increase in resistance)” value (SRS-A [3]; i.v. 1.0 mg/kg) was 54%. The “% Inhibition (sum of increase in resistance over 10 min)” value (SRS-A [3]; i.v. 1.0 mg/kg) was 45%, the “Peak Increase in Resistance to Inflation, Avg Ratio of Med/Co. Pairs ± S.E.” value (SRS-A [3]; i.v. 1.0 mg/kg) was 0.44 ± .07 and the “Sum of Increase … Avg Ratio Med/Co. Pairs ± S.E.” value (SRS-A [3]; i.v. 1.0 mg/kg) was 0.55 ± .09. For the same compound, the “% Inhibition (peak increase in resistance)” value (SRS-A [3]; i.v. 3.3 mg/kg) was 89%, the “% Inhibition (sum of increase in resistance over 10 min)” value (SRS-A [3]; i.v. 3.3 mg/kg) was 83% and the “Peak Increase in Resistance to Inflation, Avg Ratio of Med/Co. Pairs ± S.E.” value (SRS-A [3]; i.v. 3.3 mg/kg) was 0.11 ± .04. The “Sum of Increase … Avg Ratio Med/Co. Pairs ± S.E.” value (SRS-A [3]; i.v. 3.3 mg/kg) was 0.17 ± .05, the “% Inhibition (peak increase in resistance)” value (SRS-A [3]; i.v. 10 mg/kg) was 95% and the “% Inhibition (sum of increase in resistance over 10 min)” value (SRS-A [3]; i.v. 10 mg/kg) was 86%. The “Peak Increase in Resistance to Inflation, Avg Ratio of Med/Co. Pairs ± S.E.” value (SRS-A [3]; i.v. 10 mg/kg) was 0.05 ± .03, the “Sum of Increase … Avg Ratio Med/Co. Pairs ± S.E.” value (SRS-A [3]; i.v. 10 mg/kg) was 0.14 ± .04 and the “inhibition of SRS-A-induced increases in resistance to inflation” value (SRS-A [3]; intravenous) was “inhibited SRS-A-induced increases in resistance to inflation in a dose-related manner”. For the same compound, the “potency relative to phenylbutazone, times more potent (95% confidence limits)” value (SRS-A [3]; intravenous, calculated by peaks of increases in resistance) was 3.8 (95% confidence limits of 1.8 to 7.8) times, the “absorption from the GI tract” value (SRS-A [3]; oral solution in 2% N-methylglucamine, suggested by activity ratio) was “readily absorbed from the GI tract” and the “inhibition of SRS-A-induced bronchoconstriction” value (SRS-A [3]; oral solutions) was “dose-related inhibition”. For the same compound, the “% Inhibition (peak increase in resistance)” value (SRS-A [3]; [6]) was 36%, the “% Inhibition (sum of increase in resistance over 10 min)” value (SRS-A [3]; [6]) was 47% and the “Peak Increase in Resistance to Inflation, Avg Ratio of Med/Co. Pairs ± S.E.” value (SRS-A [3]; [6]) was 0.64 ± .13. The “Sum of Increase … Avg Ratio Med/Co. Pairs ± S.E.” value (SRS-A [3]; [6]) was 0.53 ± .13, the “% Inhibition (peak increase in resistance)” value (SRS-A [3]; [7]) was 87% and the “% Inhibition (sum of increase in resistance over 10 min)” value (SRS-A [3]; [7]) was 92%. The “Sum of Increase … Avg Ratio Med/Co. Pairs ± S.E.” value (SRS-A [3]; [7]) was 0.08 ± .03, the “duration of inhibition of SRS-A-induced bronchoconstriction” value (SRS-A [3]; single oral dose 10 mg/kg, suspension) was 4 h and the “iv/po activity ratio (po AED50/iv AED50)” value (SRS-A [3]; solution in 2% N-methylglucamine) was 2.6. It also gave a minimal effective dose (bradykinin) of 1 mg/kg.
